In patent publication US4929718A, “Synthetic noxiustoxin related peptides” (Universidad Nacional Autonoma De Mexico, priority 1987, dated 1990):
Ends that are not written are not given here.

How the values were obtained:
[1] = test system: mouse brain synaptosomes; test: release of tritiated GABA from mouse brain synaptosomes; type: cell-based; settings: for effect on GABA (neurotransmitter) release: mouse brain synaptosomes preloaded with 3H-GABA, FIG. 2
Text: (§1) The mechanism of action of all synthetic peptides was verified by three independent essays: "in vivo" challenge by injection of albino mice (strain CD1) with different amounts of synthetic peptides; liberation of radioactive (tritiated) gamma-amino-butyric acid from mouse brain synaptosomes; and confirmation of the results with electrophysiological experiments, through voltage-clamp technique, in chick embryo dorsal root ganglion cells maintained in "in vitro" culture.
In the experiments involving release of neurotransmitters, mouse brain synaptosomes were preloaded with radioactive gamma-amino-butyric acid (2, 3, 3H-GABA) and were placed in Millipore filters ([…]) in perfusion chambers, each one containing 0.2 to 0.3 mg. of synaptosomal protein. The fractions from the perfusate (0.5 ml. each) were collected by means of a peristaltic pump at one minute intervals. After 6 minutes, a solution containing synthetic polypeptides was added to the experimental chambers and the radioactivity release was counted in an apparatus for measuring radioisotopes. […] The liberation of GABA per minute is expressed as a percentage of the total radioactivity present in the synaptosomes at the beginning of the experiment.

[2] = test system: mice challenged with Noxiustoxin; settings: challenge with effective lethal dose of Noxiustoxin (150 g per mouse)
[3] = test system: BALB/c mice; settings: BALB/c mice immunized for two months, immunodiffusion against NTX 1-39 coupled to MSA, FIG. 3
Text: A group of ten mice were immunized with each peptide and a second group of mice were immunized with each peptide coupled to mouse serum albumin as a carrier molecule.

[4] = test system: albino mice (strain CD1); test: "in vivo" challenge / lethality tests of synthetic peptides by injection of mice; settings: for lethality test outcome: mouse, in vivo
[5] = test system: potassium channel; test: voltage-clamp study of potassium channel blockade in dorsal root ganglion cells; type: cell-based; settings: concentrations of up to 100 micromolar, chick embryo dorsal root ganglion cells
Text: as §1

[6] = dose 200 g (so in the source), intraventricularly

Threonine-Isoleucine-Isoleucine-Asparagine-Valine-Lysine-Cysteine-Threonine-Serine-Proline-Lysine-Glutamine-Cysteine-Serine-Lysine-Proline-Cysteine-Lysine-Glutamic Acid-Leucine-Tyrosine-Glycine-Serine-Serine-Alanine-Glycine-Alanine-Lysine-Cysteine-Methionine-Asparagine-Glycine-Lysine-Cysteine-Lysine-Cysteine-Tyrosine-Asparagine-Asparagine [NTX 1-39]
blockade of potassium permeability / potassium channels ([1]; excitable membranes such as brain synaptosomes): blocks potassium permeability | survival of immunized population [2]: more than 75% | immunogenicity [3]: immunogenic

Tyrosine-Glycine-Serine-Serine-Alanine-Glycine-Alanine-Lysine-Cysteine-Methionine-Asparagine-Glycine-Lysine-Cysteine-Lysine-Cysteine-Tyrosine-Asparagine-Asparagine [NTX 21-39]
immunogenicity [3]: immunogenic

Threonine-Isoleucine-Isoleucine-Asparagine-Valine-Lysine-Cysteine-Threonine-Serine-Proline-Lysine-Glutamine-Cysteine-Serine-Lysine-Proline-Cysteine-Lysine-Glutamic Acid-Leucine [NTX 1-20]
effect on GABA (neurotransmitter) release [1]: increases neurotransmitter release

TIINVKCTS [NTX 1-9, Threonine-Isoleucine-Isoleucine-Asparagine-Valine-Lysine-Cysteine-Threonine-Serine]
time to death ([4]; dose 100 g (so in the source), intraventricularly): ≤ 20 h | time to convulsions [4, 6]: ≤ 12 min | time to death [4, 6]: < 0.333 h

Methionine-Asparagine-Glycine-Lysine-Cysteine-Lysine-Cysteine-Tyrosine-Asparagine-Asparagine [NTX 30-39]
change in the potassium currents [5]: no change | immunogenicity [3]: immunogenic

Noxiustoxin (TIINVKCTSPKQCSKPCKELYGSSAGAKCMNGKCKCYNN; UniProt P08815 1-39, looked up) [Native NTX]
effect on GABA (neurotransmitter) release [1]: increases neurotransmitter release | intoxication symptoms and outcome ([4]; dose of 40 g per 20 grams of mouse body weight): generally produces death | lethality test outcome [4]: Toxic | lethality test outcome ([4]; ip): Toxic | lethality test outcome ([4]; sc): Toxic
